# Patent US20070172933A1, “Thermally stable amidases” (priority 2003, published 2007)
# B1: amidase: thermally stable amidase purified from Pseudonocardia thermophila (DSMZ 43832); SEQ ID No. 1, 2, 3 (protein, listed as Pseudonocardia thermophila)
# chain 1: IHMPDPDAV
# chain 2: DGLPVGLMIVGKHF
# chain 3: MIHMPDPDAVARMAAEGRFGIPVVVICRTYHDLGHRPARLVEQGRRAVRGGGPHPAAALVDPPRRRGRQARRVGGADLDHRNLGGAARRPHGRGQDNVAVAGVPMMNGSRTLEGFVPAEDATVVSRLLAAGATIAGKSVCEDLCFSGGSHTSKPGTVHNPWDMSRSAGGSSSGSGALVAAGEVDMAIGGDQGGSIRIPSAYCGTVGHKPTHGLVPYTGGFPIEQSIDHLGPITRTVADAALMLSVIAGRDGLDPRQPDVVEVQDYVGALAESVSGLRIGVLQEGFGHPNSEPEVDDTVRAAVGTLREAGFTVEDVSVPWHLHATAIWDVLATEGGLWQMVEGNAYGMHWKGHYDPSLIAYYGRKWREDPAQFSETVKLVALAGRYALTTQYGRHYAMARNLAPKLVAAYDAALSNYDVLVMPTLPMRATVLPGPDAPVEEILARGLEMLANTAPFDVTGHPACSVPAGLADGLPVGLMIVGKHFDDATVLKVANAFEQAVGGFPTPAAZ
# Tested on: not listed separately
# Test: Hydrolysis assay, specific activity of the purified amidase
# Type: biochemical, Pseudonocardia thermophila
# Settings: benzamide as substrate, after purification
# Protocol: (§1) To carry out the hydrolysis assay, where not mentioned otherwise, use was made of a 5 mM benzamide solution in 500 μl of a 60 mM K-Na phosphate buffer, pH 7.2. The enzymatic reaction proceeded for one hour at 70° C. with addition of 5 μg of the enzyme. The reaction was stopped by cooling the reaction solution on ice. The concentration of the products obtained enzymatically (benzoic acid and ammonia) was determined by means of HPLC and spectrometrically, using the ammonia kit Spectroquant 114752 (Merck, Germany). One unit (U) of amidase activity is defined as the amount of enzyme which catalyzes the formation of 1 μmol of benzoic acid per minute.
row,Molecule,Specific activity
1,B1,19.5 U/mg of protein

# Tested on: amidase
# Test: Substrate specificity of the isolated amidase (hydrolysis assay)
# Type: biochemical, Pseudonocardia thermophila
# Settings: not given
# Protocol: as §1, with “The concentration of the products obtained enzymatically (benzoic acid and ammonia) was determined by means of HPLC and spectrometrically, using the ammonia kit Spectroquant 114752 (Merck, Germany).” left out
# The substrate specificity of the amidase was tested at three different temperatures taking into account the substrate used in each case. For hydrolysis of amino acid amides, the reaction mixture was reacted for 3 h at 30° C., in the case of the aliphatic and cyclic amides 1 h at 50° C., and for aromatic amide substrates 1 h at 70° C. The enzymatic activity was then determined as described above. The control used was each batch without enzyme.
row,Molecule,Specific activity [µmol/min/mg]
1,m-tolylamide,12.7

# Same assay, conditions: Aliphatic amides; 1 h at 50° C.
row,Molecule,Specific activity [µmol/min/mg]
1,CCCCCC(N)=O [hexanoamide],9.3
2,NC(=O)CCCCC(N)=O [adipamide],12.0
3,C=C(C)C(N)=O [methacrylamide],23.5
4,CC(C)C(N)=O [isobutyramide],13.5
5,CCC(N)=O [propionamide],25.4
6,CC(O)C(N)=O (racemic) [DL-lactamide],18.9
7,NC=O [formamide],9.2
8,NC(=O)CC(N)=O [malonamide],7.4
9,NC(=O)CCC(N)=O [succinamide],4.0
10,CC(C)(C)C(N)=O [pivalamide],14.9
11,CC(N)=O [acetamide],15.7
12,NC(N)=O [urea],17.5

# Same assay, conditions: Amino acid amides; 3 h at 30° C.
row,Molecule,Specific activity [µmol/min/mg]
1,NC(=O)[C@@H](N)Cc1c[nH]c2ccccc12 [L-tryptophanamide],10.3
2,NC(=O)[C@@H]1CCCN1 [L-prolinamide],13.0
3,CC(C)(C)[C@H](N)C(N)=O [L-tert-leucinamide],0.08
4,C[C@H](N)C(N)=O [L-alaninamide],10.5
5,CC(C)[C@H](N)C(N)=O [L-valinamide],13.0
6,CC(C)C[C@H](N)C(N)=O [L-leucinamide],10.8
7,CSCC[C@H](N)C(N)=O [L-methioninamide],14.4
8,CSCCC(O)C(N)=O (stereo not drawn) [2-hydroxy-4-(methylthio)butyramide],5.7

# Same assay, conditions: Aromatic amides; 1 h at 70° C.
row,Molecule,Specific activity [µmol/min/mg]
1,NC(=O)c1ccc(N)cc1 [4-aminobenzamide],6.5
2,NC(=O)c1ccccc1O [o-hydroxybenzamide],7.4
3,CC(C(N)=O)c1ccccc1 (stereo not drawn) [2-phenylpropionamide],15.8
4,NC(=O)c1ccccc1N [2-aminobenzamide],3.4
5,NC(=O)Cc1c[nH]c2ccccc12 [3-indolylacetamide],7.56
6,NC(=O)c1ccccc1 [benzamide],19.4
7,p-tolylamide,13.1

# Same assay, conditions: Heterocycles; temperature for this group not stated clearly
row,Molecule,Specific activity [µmol/min/mg]
1,NC(=O)c1cnccn1 [pyrazinamide],11.2
2,NC(=O)c1cccnc1 [nicotinamide],11.6
3,NC(=O)c1ccncc1 [isonicotinamide],7.1

# Same assay, conditions: Table 4, inventive amidase
row,Molecule,Substrate specificity (amides)
1,B1,"Al, Ar, Cy, As"

# Tested on: amidase
# Test: Enantioselectivity of the isolated amidase, chiral HPLC
# Type: biochemical, Pseudonocardia thermophila
# Settings: 5 mM racemic substrate, 70° C., after 60 minutes
# Protocol: For this, 10 μg of the purified amidase were incubated with a 5 mM racemic 2-phenylpropionamide solution for 3 h at 70° C., the end volume of the reaction batch being 500 μl. At 30-minute intervals, samples were taken from the reaction batch and analyzed by an HPLC measurement.
# The product determination and quantification of the R-and S-stereoisomers of the 2-phenylpropionamide were determined by injecting defined amounts of the corresponding pure substances as standard. The enantiomeric excess (ee) was calculated on the basis of the peak area ratio obtained by the chirar HPLC measurement (ee^p=(S−R)/(S+R); ee^p (%)=(S−R)/(S+R) ×100; where p=product).
# For the HPLC measurements, a chiral Chirobiotic T column (Astec, Whippany, USA) was used. The solvent used was ethanol and 20 mM potassium phosphate buffer, pH 7.2, having a volumetric ratio of 20:80. The elution was performed at room temperature using a flow rate of 0.8 ml min^−1. Detection was performed at a wavelength of 210 nm. The amfmonia concentration was studied using the phenol hypochloride method using the ammonia kit Spectroquant 114752 (Merck, Germany), the amount of ammonia released being determined spectrometrically using ammonium chloride as standard.
row,Molecule,conversion [%]
1,CC(C(N)=O)c1ccccc1 (stereo not drawn) [2-phenylpropionamide],50

# Same assay, conditions: 5 mM racemic substrate, 70° C., after 60 minutes, S-enantiomer product
row,Molecule,enantiomeric excess ee^p
1,CC(C(N)=O)c1ccccc1 (stereo not drawn) [2-phenylpropionamide],greater than 95%

# Same assay, conditions: racemic substrate, 70° C.
row,Molecule,enantioselectivity of the purified amidase for the substrate
1,CC(C(N)=O)c1ccccc1 (stereo not drawn) [2-phenylpropionamide],highly S-selective

# Tested on: not listed separately
# Test: Determination of the isoelectric point by isoelectric focusing
# Type: physicochemical, Pseudonocardia thermophila
# Settings: Novex polyacrylamide gel
# Protocol: The isoelectric point was determined by means of isoelectric focusing using a Novex polyacrylamide gel (pH .3-10) and using a Novex electrophoresis chamber in accordance with the manufacturer's instructions (Novex, Invitrogen, Netherlands). The isoelectric point of the purified amidase was determined at pH 4.2.
row,Molecule,isoelectric point [pH]
1,B1,4.2

# Same assay, conditions: Table 4, inventive amidase
row,Molecule,IEF point pH [pH]
1,B1,4.2

# Tested on: not given
# Test: not given
# Type: physicochemical, Pseudonocardia thermophila
# Settings: pH 7.2
# Protocol: In addition, the temperature stability of the enzymes was studied between 50° C. and 80° C. over a relatively long period. […] (middle curve, FIG. 5).
row,Molecule,enzymatic activity over time (thermal stability)
1,B1,decreases rapidly

# Tested on: amidase
# Test: Effect of metals and inhibitors (reagents and ions) on amidase activity, benzamide hydrolysis
# Type: biochemical, Pseudonocardia thermophila
# Settings: not given
# Protocol: as §1, with “The concentration of the products obtained enzymatically (benzoic acid and ammonia) was determined by means of HPLC and spectrometrically, using the ammonia kit Spectroquant 114752 (Merck, Germany).” left out
# To study the effect of certain reagents and ions on amidase activity, a solution containing 5 μg of amidase and the reagent or ion was preincubated for 1 h at 22° C. in 50 mM phosphate buffer. A 5 mM solution of benzamide in 50 mM phosphate buffer was then added until the end concentration of the reagent in the reaction batch was 1 mM. The reaction was performed for 1 h at 70° C. The catalytic activity was determined as described above.
row,Molecule,sensitivity of the amidases to the reagent (in words)
1,CCCCCCCCCCCCOS(=O)(=O)[O-].[Na+] [SDS],insensitive
2,O=C(O)CN(CCN(CC(=O)O)CC(=O)O)CC(=O)O [EDTA],insensitive
3,O[C@@H](CS)[C@@H](O)CS [DTT],increased
4,Triton X-100,insensitive

# Same assay, conditions: reagent 1 mM; preincubated 1 h at 22° C.; benzamide, 1 h at 70° C.
row,Molecule,Amidase activity in % [%]
1,[Mn+2] [Mn^2+],98
2,O=C(O)CI [iodoacetate],22
3,[Co+2] [Co^2+],0
4,CCCCCCCCCCCCOS(=O)(=O)[O-].[Na+] [SDS],100
5,[Ba+2] [Ba^2+],87
6,[Zn+2] [Zn^2+],93
7,NC(=O)CI [iodoacetamide],90
8,O=C(O)CN(CCN(CC(=O)O)CC(=O)O)CC(=O)O [EDTA],100
9,[Mg+2] [Mg^2+],90
10,[Cu+2] [Cu^2+],26
11,O[C@@H](CS)[C@@H](O)CS [DTT],120
12,Triton X-100,100
13,[Ca+2] [Ca^2+],85
14,[Ni+2] [Ni^2+],42
